TGI and GI50 data for 20 molecules are collected here from PubChem BioAssay (NCI).

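Protocol summary: plate cells (96-well), add compound at 5 concentrations, incubate 48 h, interpolate endpoints linearly. GI50 marks 50% less growth. The concentration for full growth arrest is given as TGI.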

Some test systems named below: HCT-116 colon; HS 578T breast; MDA-MB-231 breast; MDA-N; OVCAR-3 ovarian; OVCAR-4 ovarian; OVCAR-5 ovarian; SK-OV-3 ovarian; SNB-19 CNS; UACC-257 melanoma.
Test in all cases: inhibition of tumour cell growth, NCI panel, 48 h

In the case of `Cc1ccc(/C=c2\c(=O)[nH]c3nc4ccccc4c(=O)n23)cc1`, the TGI in the test with HCT-116 colon was above 100 µM; with HS 578T breast, above 100 µM; in the test on MDA-MB-231 breast, above 100 µM; in the test with MDA-N, 62.2 µM; in the test with OVCAR-3 ovarian, above 100 µM; in the test with OVCAR-4 ovarian, above 100 µM. Besides, the TGI in the test with OVCAR-5 ovarian, in the test with SK-OV-3 ovarian, in the test on SNB-19 CNS and with UACC-257 melanoma was above 100 µM in each case.
As for `c1ccc2c(c1)nnn2C1CCCCO1` (stereo unspecified), the TGI with HCT-116 colon, with HS 578T breast, in the test on MDA-MB-231 breast, in the test with MDA-N, with OVCAR-3 ovarian and in the test with OVCAR-4 ovarian was above 100 µM each time. The TGI with OVCAR-5 ovarian, with SK-OV-3 ovarian, in the test with SNB-19 CNS and in the test on UACC-257 melanoma was above 100 µM throughout.
Take `CCOC(=O)c1ccc2nc3n(c2c1)C(c1c(F)cccc1F)SC3` (stereo unspecified): the TGI with HCT-116 colon, with HS 578T breast, with MDA-MB-231 breast, in the test on MDA-N, in the test with OVCAR-3 ovarian and in the test on OVCAR-4 ovarian was above 100 µM each time. Also, the TGI in the test on OVCAR-5 ovarian, with SK-OV-3 ovarian, in the test with SNB-19 CNS and in the test on UACC-257 melanoma was above 100 µM each time.
For the molecule `CC1(C)CCC2=C(O1)c1ccccc1C(=Nc1ccc([N+](=O)[O-])cc1)C2=O`, the TGI was 19.9 µM in the test with HCT-116 colon; above 100 µM with HS 578T breast; 43.2 µM in the test on MDA-MB-231 breast; 28.1 µM in the test with MDA-N; 25.3 µM in the test with OVCAR-3 ovarian; 38.7 µM in the test with OVCAR-4 ovarian. Besides, the TGI with OVCAR-5 ovarian was 28.2 µM; in the test on SK-OV-3 ovarian, 34.8 µM; in the test with SNB-19 CNS it was 32.5 µM; with UACC-257 melanoma it was 30.1 µM. The GI50 in the test with OVCAR-5 ovarian was 14.5 µM.
Turning to `O=S(=O)(O)c1ccc(O)c(N=Nc2c(O)ccc3ccccc23)c1`, the TGI in the test on HCT-116 colon, in the test with HS 578T breast, with MDA-MB-231 breast, in the test on MDA-N, in the test on OVCAR-3 ovarian and in the test on OVCAR-4 ovarian was above 100 µM each time. The TGI with OVCAR-5 ovarian, in the test with SK-OV-3 ovarian, in the test with SNB-19 CNS and with UACC-257 melanoma was above 100 µM in each case.
In the case of `NS(=O)(=O)c1nnc(NS(=O)(=O)c2cccc3cccnc23)s1`, the TGI with HCT-116 colon, in the test with HS 578T breast, with MDA-MB-231 breast, in the test on MDA-N, in the test with OVCAR-3 ovarian and with OVCAR-4 ovarian was above 100 µM throughout. Moreover, the TGI with OVCAR-5 ovarian, with SK-OV-3 ovarian, in the test on SNB-19 CNS and in the test on UACC-257 melanoma was above 100 µM in each case.
On to `CC1CN(c2cc3c(cc2F)c(=O)c(C(=O)O)cn3-c2ccc(N3CCN(C)CC3)cn2)CC(C)N1` (stereo unspecified), for which the TGI in the test with HCT-116 colon, with HS 578T breast, in the test with MDA-MB-231 breast, in the test on MDA-N, with OVCAR-3 ovarian and in the test on OVCAR-4 ovarian was above 100 µM each time. Besides, the TGI with OVCAR-5 ovarian, with SK-OV-3 ovarian, in the test on SNB-19 CNS and in the test with UACC-257 melanoma was above 100 µM throughout.
Consider `N=c1ncn(C/C=C/c2ccccc2)c2nc[nH]c12`, for which the TGI in the test with HCT-116 colon, with HS 578T breast, in the test on MDA-MB-231 breast, in the test on MDA-N, with OVCAR-3 ovarian and with OVCAR-4 ovarian was above 100 µM each time. Also, the TGI in the test with OVCAR-5 ovarian, with SK-OV-3 ovarian, in the test with SNB-19 CNS and with UACC-257 melanoma was above 100 µM in each case.
As for `O=C1C(c2ccccc2)=C(c2ccccc2)C1(Cl)Cl`, the TGI with HCT-116 colon is 2.85 µM; in the test on HS 578T breast, above 28.8 µM; in the test with MDA-MB-231 breast it was 7.84 µM; in the test on MDA-N, 4.51 µM; in the test on OVCAR-3 ovarian, 7.34 µM; in the test with OVCAR-4 ovarian, 11.4 µM. The TGI in the test with OVCAR-5 ovarian was found to be 20.8 µM; with SK-OV-3 ovarian, 29.2 µM; in the test with SNB-19 CNS, 32.9 µM; with UACC-257 melanoma, 9.36 µM.
`COC(=O)/C1=C/C=C\C[C@@]2(C)CC(c3ccoc3)OC(=O)[C@@H]2CC[C@H]1C` (stereo partly specified): the TGI in the test on HCT-116 colon, in the test on HS 578T breast, in the test with MDA-MB-231 breast, with MDA-N, with OVCAR-3 ovarian and with OVCAR-4 ovarian was above 25 µM throughout. For the same molecule, the TGI in the test with OVCAR-5 ovarian, in the test on SK-OV-3 ovarian, in the test on SNB-19 CNS and in the test on UACC-257 melanoma was above 25 µM throughout.
On to `O=C(CCCCCNC(=O)c1ccc(Cl)cc1)NO`, for which the TGI is 10.7 µM in the test on HCT-116 colon; above 100 µM in the test on HS 578T breast; 21 µM in the test with MDA-MB-231 breast; 10.8 µM in the test on MDA-N; 13 µM in the test on OVCAR-3 ovarian; above 100 µM in the test on OVCAR-4 ovarian. For the same molecule, the TGI was 8.43 µM in the test with OVCAR-5 ovarian, 41 µM with SK-OV-3 ovarian, above 100 µM in the test with SNB-19 CNS and 14.5 µM with UACC-257 melanoma.
As to `Cc1cn(C2CC(O)C(Cn3nncc3Cn3nc(Br)c(=O)[nH]c3=O)O2)c(=O)[nH]c1=O` (stereo unspecified), the TGI in the test on HCT-116 colon, in the test on HS 578T breast, in the test with MDA-MB-231 breast, in the test with MDA-N, in the test on OVCAR-3 ovarian and with OVCAR-4 ovarian was above 100 µM throughout. The TGI in the test with OVCAR-5 ovarian, in the test on SK-OV-3 ovarian, in the test with SNB-19 CNS and in the test with UACC-257 melanoma was above 100 µM in each case.
With `COC(=O)NC(Cc1ccccc1)NC(=O)OC(C)(C)C` (stereo unspecified), the TGI in the test with HCT-116 colon, with HS 578T breast, with MDA-MB-231 breast, with MDA-N, in the test on OVCAR-3 ovarian and with OVCAR-4 ovarian was above 100 µM in each case. The TGI with OVCAR-5 ovarian, with SK-OV-3 ovarian, in the test on SNB-19 CNS and in the test on UACC-257 melanoma was above 100 µM in each case.
As for `O=c1oc2ccccc2c(O)c1C(c1ccc(OCc2ccccc2)cc1)c1c(O)c2ccccc2oc1=O`, the TGI in the test with HCT-116 colon was above 100 µM; in the test on HS 578T breast it was above 100 µM; in the test with MDA-MB-231 breast, 69.2 µM; in the test with MDA-N, 59.4 µM; with OVCAR-3 ovarian, above 100 µM; in the test with OVCAR-4 ovarian, above 100 µM. In addition, the TGI with OVCAR-5 ovarian, in the test on SK-OV-3 ovarian, with SNB-19 CNS and in the test with UACC-257 melanoma was above 100 µM in each case.
With `C[Si](C)(C)OC1(C#N)c2ccccc2CCCC12CCCC2` (stereo unspecified), the TGI in the test with HCT-116 colon, in the test on HS 578T breast, with MDA-MB-231 breast, with MDA-N, in the test on OVCAR-3 ovarian and in the test with OVCAR-4 ovarian was above 100 µM each time. Further, the TGI in the test on OVCAR-5 ovarian was above 100 µM; with SK-OV-3 ovarian, above 100 µM; with SNB-19 CNS, above 100 µM; with UACC-257 melanoma it was 58.3 µM.
Turning to `CCn1c(CCCc2nc3c([nH]2)c(=O)n(C)c(=O)n3C)nc2c1c(=O)n(C)c(=O)n2C`, the TGI in the test on HCT-116 colon, in the test with HS 578T breast, in the test on MDA-MB-231 breast, in the test with MDA-N, in the test on OVCAR-3 ovarian and in the test on OVCAR-4 ovarian was above 100 µM in each case. Besides, the TGI in the test on OVCAR-5 ovarian, in the test with SK-OV-3 ovarian, with SNB-19 CNS and in the test with UACC-257 melanoma was above 100 µM in each case.
Regarding `CCOc1ccc2c(c1)C(/C(C(Cl)=C(Cl)Cl)=[N+](/[O-])OC(=O)c1ccccc1)=N2`, the TGI with HCT-116 colon, in the test on HS 578T breast, in the test on MDA-MB-231 breast, in the test on MDA-N, in the test on OVCAR-3 ovarian and in the test with OVCAR-4 ovarian was above 100 µM each time. Further, the TGI in the test with OVCAR-5 ovarian, in the test with SK-OV-3 ovarian, in the test with SNB-19 CNS and in the test on UACC-257 melanoma was above 100 µM throughout.
Turning to `COC(=O)N[C@@H]1C[C@H]2CC[C@]1(O[Si](C(C)C)(C(C)C)C(C)C)C(=O)C2`, the TGI is above 100 µM with HCT-116 colon; 31.5 µM with HS 578T breast; 76.5 µM in the test with MDA-MB-231 breast; 83.4 µM in the test with MDA-N; 39.7 µM in the test on OVCAR-3 ovarian; 33.8 µM in the test with OVCAR-4 ovarian. The TGI in the test with OVCAR-5 ovarian was 45.3 µM; in the test with SK-OV-3 ovarian it was 46.5 µM; with SNB-19 CNS, 39.5 µM; in the test with UACC-257 melanoma, 38.4 µM.
Consider `COC1(OC)CC(CO)(COc2cc(Cl)nc(N)n2)C1`, for which the TGI in the test on HCT-116 colon, with HS 578T breast, in the test with MDA-MB-231 breast, in the test with MDA-N, in the test with OVCAR-3 ovarian and in the test on OVCAR-4 ovarian was above 100 µM throughout. The TGI in the test with OVCAR-5 ovarian, in the test with SK-OV-3 ovarian, in the test with SNB-19 CNS and in the test on UACC-257 melanoma was above 100 µM in each case.
For the molecule `[N-]=[N+]=Nc1cc(=O)[nH]c2ccccc12`, the TGI in the test on HCT-116 colon, with HS 578T breast, in the test with MDA-MB-231 breast, with MDA-N, in the test with OVCAR-3 ovarian and in the test with OVCAR-4 ovarian was above 100 µM each time. The TGI with OVCAR-5 ovarian, in the test with SK-OV-3 ovarian, with SNB-19 CNS and with UACC-257 melanoma was above 100 µM in each case.
